Laboratory results as given in patent US20130012440A1, “PREVENTIVE AND/OR THERAPEUTIC AND/OR AGGRAVATION SUPPRESSING AGENT FOR HUMAN ARTHRITIS DEFORMANS” (ASAHI KASEI PHARMA CORPORATION, priority 2009, published 2013).
Marks after values point to notes of the source that are not given here.

Experiments:
[1] = test system: spontaneous-onset guinea pig model; details: cited from earlier work
[2] = test system: knee osteoarthritis patients; details: cited from earlier work
[3] = test system: monkeys subjected to ovariectomy; details: cited from earlier work
[4] = test system: rats subjected to ovariectomy; details: cited from earlier work
[5] = test system: mice subjected to orchiectomy; details: cited from earlier work
[6] = test system: hip osteoarthritis; details: systematic review of clinical results; cited from earlier work
[7] = test system: rabbit model of anterior cruciate ligament transection; details: cited from earlier work
[8] = test system: rabbit model of meniscus damage; details: cited from earlier work
[9] = test system: cartilage cells acquired from knee osteoarthritis patients; details: cited from earlier work
[10] = test system: mice; experiment: Fatal toxicity after administration to mice; format: in vivo; details: 3300 or 2000 units/kg (body weight), intravenous, intramuscular, subdermal, or oral routes
Excerpt: (§1) The aforedescribed PTH or PTH derivative has extremely low toxicity.

[11] = test system: adenyl cyclase from rat kidney; experiment: Activity measurement according to the article of Marcus et al.; format: biochemical; details: method of Marcus et al. (Non-Patent Document 44)
Description: [Non-Patent Document 44] Marcus, R et al. “Bioassay of parathyroid hormone in vitro with a stable preparation of adenyl cyclase from rat kidney” Endocrinology 85: 801-810, 1969. […]
(§2) Female patients diagnosed with primary osteoporosis on the basis of the diagnostic criteria of Non-Patent Document 42 were given intermittent subdermal administrations of 5 or 100 units of an acetate salt of human PTH (1-34), which was prepared using the method of Takai (Patent Documents 4 and 5, Non-Patent Document 43), once per week (accordingly, there was a 5-unit administration group and a 100-unit administration group). The measured activity of the acetate salt of human PTH (1-34) was 3300 units/mg in the present test example according to the article of Marcus et al. (Non-Patent Document 44).

[12] = test system: rats; experiment: Fatal toxicity after administration to rats; format: in vivo; details: 3300 or 2000 units/kg (body weight), intravenous, intramuscular, subdermal, or oral routes
Excerpt: as §1

[13] = test system: female patients diagnosed with primary osteoporosis; experiment: Test Example 2: onset and exacerbation of knee osteoarthritis during once-weekly subdermal administration (placebo vs 200-unit group); format: in vivo, human
Description: Two tablets of a calcium agent (containing 500 mg of precipitated calcium carbonate (200 mg of calcium) per tablet) were further administered orally once per day to the placebo group and the 200-unit administration group.
(§3) During the course of administration, both groups were prohibited from concurrent usage of calcitonin formulations, activated vitamin D3 formulations, vitamin K formulations, ipriflavone formulations, formulations of salts of bisphosphonic acid, estrogen formulations, anabolic-hormone formulations, doctor-prescribed calcium formulations (excepting the aforedescribed calcium agent administered as two tablets per day), and other medicinal agents thought to exert an effect on bone metabolism.
(§4) The attending physicians evaluated knee osteoarthritis according to the diagnostic criteria of each medical treatment facility on the basis of, e.g., the chief complaints of the patient, such as knee-joint pain and knee pain.

[14] = test system: female patients diagnosed with primary osteoporosis; experiment: Test Example 1: onset of knee osteoarthritis during once-weekly subdermal administration (5- vs 100-unit groups); format: in vivo, human; details: for Frequency of onset (%) of knee osteoarthritis / Number of cases of onset of knee osteoarthritis: subdermal once per week
Description: as §2
An injectable formulation containing 5 or 100 units per vial of the acetate salt of human PTH (1-34) was dissolved into 1 mL of normal saline solution at the time of usage, and 1 mL/person was subdermally administered to the 5-unit and 100-unit groups. Two tablets of a calcium agent (containing 500 mg of precipitated calcium carbonate (200 mg of calcium) per tablet) were further administered orally once per day to the 5-unit and 100-unit groups.
as §3, §4
The frequency of onset of knee osteoarthritis in the 5-unit administration group in the present test example was also compared to the natural frequency of onset. The value used for the natural frequency of onset resulted from dividing the 174,000 female arthritis patients of ages 70 through 74 throughout the country in the Japanese Nationwide Patient Survey (2005, edited by the Statistics and Information Department of the Minister's Secretariat of the Ministry of Health, Labour and Welfare, [published by] the Health and Welfare Statistics Association) by the population of 3,597,754 women of the same age throughout the country according to the Statistics Bureau of the Ministry of Internal Affairs and Communications.

[15] = test system: rat model of osteoarthritis; details: cited from earlier work
[16] = listed as printed as 100-unit administration group, subdermal once per week
[17] = 5-unit administration group, 165 cases

For `O=P(O)(O)C(O)(Cc1cccnc1)P(=O)(O)O` [risedronate], the “Effect of limiting cartilage degeneration” value [1] is listed as “found to have an effect of limiting cartilage degeneration” and the Medicinal effects ([2]; clinical tests on knee osteoarthritis patients) is listed as “medicinal effects were not found”.

In the case of Estrogen, the “Activity for improving cartilage degeneration” value [3] is listed as “activity for improving cartilage degeneration”, the “Activity for improving cartilage degeneration” value [4] is listed as “activity for improving cartilage degeneration” and the “Activity for improving cartilage degeneration” value [5] is listed as “activity for improving cartilage degeneration”. For the same molecule, the “Effects of estrogen therapy” value [6] was “has not been found to have clear effects” and the “Risk of hip osteoarthritis” value [6] was “increase the risk of hip osteoarthritis”.

For Hyaluronate, the “Activity for limiting disease progression” value [7] is listed as “activity for limiting disease progression”, the Accelerating healing [8] is listed as “accelerating healing” and the “Limiting apoptosis of cartilage cells” value [9] is listed as “activity for limiting apoptosis of cartilage cells”. For the same molecule, the “Limiting the production of enzymes that degrade the cartilage matrix” value [9] was “showed activity for limiting the production of enzymes that degrade the cartilage matrix” and the “Efficacy as a medicine for limiting the progression of the disease” value ([2]; meta-analyses of clinical tests on knee osteoarthritis patients) was “in doubt”.

With human PTH (1-34) the Fatal toxicity [10] was “never observed”, the Measured activity [11] was 3300 units/mg and the Fatal toxicity [12] was “never observed”. For the same molecule, the “Frequency of onset of knee osteoarthritis, 200-unit group compared with placebo group” value ([13]; 200 units once per week) was “less than that in the placebo group”, the “Onset and exacerbation of knee osteoarthritis in osteoporosis patients” value ([13]; administration to osteoporosis patients) was “clearly and markedly limits the onset and exacerbation of knee osteoarthritis” and the “Exacerbation of knee osteoarthritis: Number of cases of exacerbation” value [13, 16] was 4. The “Onset of knee osteoarthritis: Frequency of onset (%)” value [13, 16] was 5.4%, the “Onset of knee osteoarthritis: Number of cases of onset” value [13, 16] was 15 and the “Frequency of onset (%) of knee osteoarthritis” value [14, 17] was 6.67%. The “Number of cases of onset of knee osteoarthritis” value [14, 17] was 11, the “Frequency of onset of knee osteoarthritis, 5-unit group compared with natural frequency of onset” value ([14]; 5 units once per week, 6.67% vs natural 4.84%) was “statistically significant difference was not found” and the “Number of cases of onset of knee osteoarthritis” value ([14]; 100-unit administration group, 314 cases) was 4. The “Frequency of onset (%) of knee osteoarthritis” value ([14]; 100-unit administration group, 314 cases, p < 0.05 vs 5-unit group) was 1.27* %, the “Frequency of onset of knee osteoarthritis, 100-unit group compared with 5-unit group” value ([14]; 100 units once per week vs 5 units, p<0.05) was “significantly less than that in the 5-unit administration group” and the “Onset of knee osteoarthritis, 100-unit group compared with natural onset” value ([14]; 100 units once per week, natural frequency of onset 4.84%) was “significantly more limited onset of knee osteoarthritis than in the case of natural onset”.

B1: parathyroid hormone (protein, UniProt P01270 32-115, looked up)
Parathyroid hormone: SVSEIQLMHNLGKHLNSMERVEWLRKKLQDVHNFVALGAPLAPRDAGSQRPRKKEDNVLVESHEKSLGEADKADVNVLTKAKSQ
modifications: Parathyroid hormone
For B1, the Therapeutic effect [15] is listed as “a slight therapeutic effect”.
